Patent US5707817A, “Carbohydrate-based vaccine and diagnostic reagent for trichinosis” (Colorado State University Research Foundation, priority 1995, dated 1998)
Like-named read-outs stand apart in the source and are kept apart here.

Experiments:
[1] = tested on: binding of Tsp 130 antibody to T. spiralis TSL-1 antigens and E11.5 lysate
[2] = tested on: binding of Tsp 130 antibody to TSL-1 antigen; assay: Competition ELISA: disaccharide inhibition of Tsp 130 antibody binding to TSL-1 antigen (Example 5); parameters: species or system T. spiralis; conditions: for inhibition of binding of Tsp 130 antibody to TSL-1 antigen: about 500 μg/ml; for relative affinity of Tsp 130 binding: in words, Example 5
Protocol: (§1) Monoclonal antibody Tsp 130 was prepared as described in Denkers et al. (J. Immunol. 144:3152-3159, 1990). TSL-1 antigens were prepared from muscle stage larvae by affinity purification using a Tsp 130 antibody preparation and methods as described in Denkers et al., J. Immunol., ibid., and Denkers et al., Mol. Biochem. Parasitol., ibid.
(§2) Wells in an ELISA plate were coated with TSL-1 antigens as follows. A 96-well Immunlon II ELISA plate, available from Dynatech Laboratories, Chantilly, Va., was coated with about 100 μl/well of a solution containing about 15 ng of TSL-1 antigens per 100 μl carbonate buffer at pH 9.6, overnight, at about 4° C. Following the overnight incubation, the TSL-1 antigen-containing solution was discarded from the wells of the ELISA plate. No wash was performed. The wells of the ELISA plate were then filled to the top with about 10% dry milk in phosphate buffered saline and allowed to incubate for about 1 hour at room temperature. Following the 1 hour incubation, the milk solution was discarded from the wells. No wash was performed.
(§3) Samples in which Tsp-130 monoclonal antibodies and disaccharides, as listed below, were pre-incubated prior to addition to the treated ELISA plate were prepared as follows. One thousand-fold serial dilutions of the following disaccharides, ranging from about 1×10^-6 fg/ml to about 1 mg/ml, were prepared in water: (a) α-tyvelose(1,3)β-d-N-acetylgalactosamine (also referred to herein as α-tyv-GalNAc); (b) β-tyvelose(1,3)β-d-N-acetylgalactosamine (also referred to herein as β-tyv-GalNAc); and (c) α-glucoseα-D-glucose (also referred to herein as α-glc-glc, or trehalose). The disaccharide-containing serial dilutions were then mixed with an about 1:6,400 dilution of Tsp 130 antibody at an about 1:1 (v:v) ratio. The samples were incubated for overnight at about 4° C.
(§4) About 100 μl of the pre-incubation samples were added in triplicate to wells in the milk-coated ELISA plate. The plate was incubated for about 1 hour at room temperature to allow any unbound Tsp 130 antibody in each sample to bind to TSL-1 antigen coated onto the ELISA plate. The plate was then washed 3 times with water.
(§5) The amount of Tsp 130 antibody that bound to TSL-1 antigen coated onto the ELISA plate was determined using the following method. About 100 μl of an about 1:8,000 dilution of horse radish peroxidase-conjugated goat anti-mouse IgG antibody (available from Kirkegaard & Perry Laboratories, Inc., Gaithersburg, Md.) was added to each well of the ELISA plate. The plate was then incubated for about 45 minutes at room temperature. Following incubation, the plate was washed 5 times with 0.05% Tween 20 in phosphate-buffered saline (PBS). The peroxidase-conjugated antibodies which bound to Tsp 130 antibody in the wells were then detected by (a) adding 100 μl/well of 3,3',5,5'-tetramethylbenzidine mixed 1:1 (v:v) with 0.02% hydrogen peroxide in a citric acid buffer (i.e., TMB Microwell Peroxidase Substrate System available from Kirkegaard & Perry) and (b) incubating the plate for about 5 minutes at room temperature. The color reaction was stopped by adding about 100 μl/well of 1M o-phosphoric acid. The color reaction was quantitated using a Microplate Reader #7520, available from Cambridge Technology, Inc., Watertown, Mass. at a wavelength of 450 nm.

[3] = tested on: Tsp 130 binding to TSL-1 antigen; assay: Competitive inhibition assay: disaccharide inhibition of Tsp 130 binding to TSL-1 antigen (Example 6); parameters: species or system T. spiralis
Protocol: as §1, §2, §3
About 100 μl of the pre-incubation samples were added in triplicate to wells in the milk-coated ELISA plate. The plate was incubated for about 1 hour at room temperature to allow any unbound Tsp 130 antibody in each sample to bind to TSL-1 antigen coated onto the ELISA plate. […]
The amount of Tsp 130 antibody that bound to TSL-1 antigen coated onto the ELISA plate was determined using the following method. […] The peroxidase-conjugated antibodies which bound to Tsp 130 antibody in the wells were then detected by (a) adding 100 μl/well of 3,3',5,5'-tetramethylbenzidine mixed 1:1 (v:v) with 0.02% hydrogen peroxide in a citric acid buffer (i.e., TMB Microwell Peroxidase Substrate System available from Kirkegaard & Perry) and (b) incubating the plate for about 5 minutes at room temperature. […] The color reaction was quantitated using a Microplate Reader #7520, available from Cambridge Technology, Inc., Watertown, Mass. at a wavelength of 450 nm. […]

[4] = tested on: Tsp 130 binding to the crude T. spiralis muscle stage larval lysate E11.5; assay: Competitive inhibition assay: disaccharide inhibition of Tsp 130 binding to crude muscle stage larval lysate E11.5 (Example 7); conditions: for inhibition of Tsp 130 binding to E11.5 lysate: about 500 μg/ml
Protocol: as §3, §4, §5
Monoclonal antibody Tsp 130 was prepared as described in Example 5. A crude muscle larval lysate of T. spiralis, referred to herein as E11.5, was prepared according to the method as described in Reason et al., ibid.
An Immunlon II ELISA plate coated with E11.5 lysate was prepared using the method described in Example 5 with the variation that wells in the plate were coated with about 100 μl/well of a solution containing about 250 ng of E11.5 lysate per 100 μl carbonate buffer at pH 9.6. […]

β-3,6-dideoxy-D-arabinohexose [β-tyvelose]
competitive inhibition of Tsp 130 antibody binding, comparison ([1]; in words, Examples 5 through 7): better than α-tyvelose and even better than α-glc-glc

CC(=O)N[C@@H]1[C@@H](O[C@@H]2O[C@H](C)[C@@H](O)C[C@@H]2O)[C@@H](O)[C@@H](CO)O[C@H]1O [β-tyv-GalNAc, β-tyvelose(1,3)β-d-N-acetylgalactosamine]
inhibition of binding of Tsp 130 antibody to TSL-1 antigen [2]: about 100% | relative affinity of Tsp 130 binding [2]: higher affinity than to α-tyv-GalNAc | inhibition of Tsp 130 binding to TSL-1 antigen ([3]; about 100 μg/ml): about 92% | inhibition of Tsp 130 binding to TSL-1 antigen ([3]; about 1 mg/ml): about 97% | relative affinity of Tsp 130 binding ([3]; in words, Example 6): higher affinity than to α-tyv-GalNAc | inhibition of Tsp 130 binding to E11.5 lysate [4]: about 97% | relative affinity of Tsp 130 binding ([4]; in words, Example 7): higher affinity than to α-tyv-GalNAc or to α-glc-glc

C[C@H]1O[C@H](O)[C@@H](O)C[C@@H]1O [α-tyvelose]
competitive inhibition of Tsp 130 antibody binding, comparison [1]: able to competitively inhibit Tsp 130 antibody binding to TSL-1 antigen but at a higher concentration than β-tyvelose

OC[C@H]1O[C@H](O[C@H]2O[C@H](CO)[C@@H](O)[C@H](O)[C@H]2O)[C@H](O)[C@@H](O)[C@@H]1O [α-glc-glc, α-glucoseα-D-glucose, reference compound]
inhibition of binding of Tsp 130 antibody to TSL-1 antigen [2]: about 30% | relative affinity of Tsp 130 binding [2]: even weaker | inhibition of Tsp 130 binding to E11.5 lysate [4]: about 7%

CC(=O)N[C@@H]1[C@@H](O[C@H]2O[C@H](C)[C@@H](O)C[C@@H]2O)[C@@H](O)[C@@H](CO)O[C@H]1O [α-tyv-GalNAc, α-tyvelose(1,3)β-d-N-acetylgalactosamine]
inhibition of binding of Tsp 130 antibody to TSL-1 antigen [2]: about 50% | inhibition of Tsp 130 binding to TSL-1 antigen ([3]; about 1 mg/ml): about 74% | inhibition of Tsp 130 binding to E11.5 lysate [4]: about 28%
